These results are taken from patent US11059845B2, “Immune stimulating macrolides” (ISR IMMUNE SYSTEM REGULATION HOLDING AB (PUBL), priority 2017, dated 2021).

In brackets after ≈: the same amount, converted by molar mass. Some results are limits rather than exact numbers.

What all share (assay type): cell-based
Assay [1] has as its system E. coli, S. salivarius, L. casei, B. longum or M. luteus. As to the kind of experiment: Direct antibacterial activity, summary over all strains tested. The settings on record: against the bacterial strains tested (Table 1). The procedure: (§1) The bioactivity of macrolide compounds against 4 strains of common gut bacteria (Escherichia coli, Streptococcus salivarius subsp. salivarius, Lactobacillus casei and Bifidobacterium longum subsp. infantis) and common mammalian skin isolate Micrococcus luteus, was assessed using the Minimum Inhibitory Concentration (MIC) assay. Bacterial strains were purchased from DSMZ (Brunswick, Germany) except M. luteus which was obtained from NCIMB, and stored in 20% glycerol at −80° C. Stock solutions (100% DMSO) of positive controls (azithromycin and erythromycin), and of test compounds 1 and 2 were diluted in broth to working stock concentrations of 256 μg/ml (final assay testing concentration range 128 μg/ml to 0.00391 μg/ml). Stock solutions of all other compounds were diluted in broth to working stock concentrations of 128 μg/ml (final assay testing concentration range 64 μg/ml to 0.00195 μg/ml). Bacterial strains were cultivated in appropriate broth in an anaerobic chamber at 37° C., except for M. luteus which was incubated aerobically at 37° C. 18 h cultures were diluted in broth to an OD595 of 0.1 and then further diluted 1:10. In 96-well plates, in duplicate, 200 μl working stock of test compound was transferred to well 1 and serially diluted (1:2) in broth. 100 μl bacterial suspension was aliquoted into each well and mixed thoroughly. Appropriate sterility controls were included and plates were incubated in an anaerobic chamber, or aerobically (M. luteus) at 37° C. for 18 h. The MIC was determined to be the concentration of test compound in the first well with no visible growth.

In assay [2] the test system is Micrococcus luteus. As to the kind of experiment: Minimum Inhibitory Concentration (MIC) assay. The settings on record: aerobic, 37° C., 18 h. The procedure: as §1
The test system of assay [3] is Lactobacillus casei. As to the kind of experiment: Minimum Inhibitory Concentration (MIC) assay. The settings on record: Lacticaseibacillus casei; anaerobic, 37° C., 18 h. The protocol: as §1
For assay [4], the system named is Streptococcus salivarius subsp. salivarius. As to the kind of experiment: Minimum Inhibitory Concentration (MIC) assay. The settings on record: anaerobic, 37° C., 18 h. The protocol:
as §1

For assay [5], the system named is Escherichia coli. As to the kind of experiment: Minimum Inhibitory Concentration (MIC) assay. The settings on record: anaerobic, 37° C., 18 h. The procedure: as §1
Assay [6] has as its system Bifidobacterium longum subsp. infantis. As to the kind of experiment: Minimum Inhibitory Concentration (MIC) assay. The settings on record: anaerobic, 37° C., 18 h. The protocol:
as §1

Assay [7] deals with T1, human TLR2 (Homo sapiens, UniProt O60603).
T1 construct: host or cells: recombinant HEK-293-TLR cell lines (hTLR2, NFkB-SEAP reporter)
As to the kind of experiment: TLR2 reporter assay (HEK-293-TLR, SEAP). To be noted: for OD after addition of 5 μM test article / OD after addition of 10 μM test article / OD after addition of 20 μM test article: SEAP reporter optical density; for TLR2 stimulation: at concentrations up to 20 uM. The protocol: Samples and controls were tested in duplicate on recombinant HEK-293-TLR cell lines using a cell reporter assay at Invivogen using their standard assay conditions. These cell lines functionally over-express human TLR2 protein as well as a reporter gene which is a secreted alkaline phosphatase (SEAP). The production of this reporter gene is driven by an NFkB inducible promoter. The TLR reporter cell lines activation results are given as optical density values (OD). 20 μl of each test article were used to stimulate the hTLR2 reporter cell lines in a 200 μl of final reaction volume. Samples were tested in duplicate, with at least two concentrations tested—20 uM and 10 uM.
Compounds were tested using a TLR2 reporter assay (see general methods) that measured for stimulation of the TLR2 receptor. Stimulatory effect was measured as an increase in optical density (OD) due to release of secreted alkaline phosphatase (SEAP) and is shown in table 4: […]

T1 sequence (O60603 21-784): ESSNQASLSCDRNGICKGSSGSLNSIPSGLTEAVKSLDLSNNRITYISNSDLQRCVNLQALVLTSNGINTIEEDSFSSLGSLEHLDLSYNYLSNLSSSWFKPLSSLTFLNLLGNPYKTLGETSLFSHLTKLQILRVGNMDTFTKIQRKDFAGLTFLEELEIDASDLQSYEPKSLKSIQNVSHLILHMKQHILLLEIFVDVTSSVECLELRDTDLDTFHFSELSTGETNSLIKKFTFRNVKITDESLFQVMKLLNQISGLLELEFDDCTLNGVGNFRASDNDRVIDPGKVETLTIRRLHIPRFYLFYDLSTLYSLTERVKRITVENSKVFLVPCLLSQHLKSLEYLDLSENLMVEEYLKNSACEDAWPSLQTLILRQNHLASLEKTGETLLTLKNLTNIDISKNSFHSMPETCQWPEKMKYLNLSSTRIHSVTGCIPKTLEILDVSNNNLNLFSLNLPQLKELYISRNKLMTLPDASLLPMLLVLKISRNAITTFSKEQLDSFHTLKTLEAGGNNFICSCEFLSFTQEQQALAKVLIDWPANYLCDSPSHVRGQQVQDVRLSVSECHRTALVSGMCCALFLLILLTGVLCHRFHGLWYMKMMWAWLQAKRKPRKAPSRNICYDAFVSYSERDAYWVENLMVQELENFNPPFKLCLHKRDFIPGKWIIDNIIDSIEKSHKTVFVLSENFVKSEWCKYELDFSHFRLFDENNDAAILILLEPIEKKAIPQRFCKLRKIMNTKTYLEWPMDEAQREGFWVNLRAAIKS

For the molecule `CC[C@H]1OC(=O)[C@H](C)[C@@H](O[C@H]2C[C@@](C)(OC)[C@@H](O)[C@H](C)O2)[C@H](C)[C@@H](O[C@@H]2O[C@H](C)C[C@H](N(C)C)[C@H]2O)[C@](C)(O)C[C@@H](C)CN(C)[C@H](C)[C@@H](O)[C@]1(C)O` [Azithromycin, reference compound], the antibacterial activity result in assay [1] is “potent activity against a number of the strains”. In addition, the MIC in assay [2] was 0.125 µg/mL (≈ 0.167 µM); in assay [3], less than 1 µg/mL; in assay [4], less than 0.5 µg/mL; in assay [5] it was less than 8 µg/mL; in assay [6], more than 64 µg/mL. Further, in assay [7], the “OD after addition of 5 μM test article” value is reported as 0.029. In assay [7], the “OD after addition of 10 μM test article” value came to 0.045. In addition, in assay [7], the “OD after addition of 20 μM test article” value is 0.031. In assay [7], the TLR2 stimulation result is given as “little or no stimulation”.

As for `CC[C@H]1OC(=O)[C@H](C)[C@@H](O[C@H]2CC(N(C)C)[C@H](O)C(C)O2)[C@H](C)[C@@H](O)[C@](C)(O)C[C@@H](C)C(=O)[C@H](C)[C@@H](O)[C@H]1C` (some centres unmarked) [Compound 3], the antibacterial activity entry in assay [1] is “no antibacterial activity”. Besides, in assay [7], the “OD after addition of 5 μM test article” value is on record as −0.043, the “OD after addition of 10 μM test article” value is −0.015, the “OD after addition of 20 μM test article” value is −0.026 and the TLR2 stimulation result was “little or no stimulation”.

For `CC[C@H]1OC(=O)[C@H](C)[C@@H](O[C@H]2CC(N(C)C)[C@H](O)C(C)O2)[C@H](C)[C@@H](O)[C@](C)(O)C[C@@H](C)CN(C)[C@H](C)[C@@H](O)[C@H]1C` (some centres unmarked) [Compound 4], the antibacterial activity entry in assay [1] is listed as “no antibacterial activity”. The minimal inhibitory concentration (MIC) in assay [3], in assay [4], in assay [5] and in assay [6] was more than 64 µg/mL throughout.

As to `CC1O[C@@H](O[C@H]2[C@H](C)[C@@H](O)[C@](C)(O)C[C@@H](C)C(=O)[C@H](C)[C@@H](O)[C@@H](C)[C@@H](C3CCC3)OC(=O)[C@@H]2C)CC(N(C)C)[C@@H]1O` (some centres unmarked) [Compound 5], the antibacterial activity entry in assay [1] is “no antibacterial activity”. Besides, the MIC in assay [3], in assay [4], in assay [5] and in assay [6] was more than 64 µg/mL throughout.

Take `CC[C@H]1OC(=O)[C@H](C)[C@@H](O[C@H]2CC(NC)[C@H](O)C(C)O2)[C@H](C)[C@@H](O)[C@](C)(O)C[C@@H](C)C(=O)[C@H](C)[C@@H](O)[C@H]1C` (some centres unmarked) [Compound 6]: the antibacterial activity result in assay [1] was “no antibacterial activity”. The MIC in assay [3], in assay [4], in assay [5] and in assay [6] was more than 64 µg/mL each time.

As to `CC[C@H]1OC(=O)[C@H](C)[C@@H](O[C@H]2CC(N(C)C)[C@H](O)C(C)O2)[C@H](C)[C@@H](O)[C@](C)(O)C[C@@H](C)C(O)[C@H](C)[C@@H](O)[C@H]1C` (some centres unmarked) [Compound 7], the antibacterial activity entry in assay [1] is reported as “no antibacterial activity”. Besides, the minimum inhibitory concentration (MIC) in assay [3], in assay [4], in assay [5] and in assay [6] was more than 64 µg/mL each time.

Turning to `CC1O[C@@H](O[C@H]2[C@H](C)[C@@H](O)[C@](C)(O)C[C@@H](C)C(=O)[C@H](C)[C@@H](O)[C@@H](C)[C@@H](C)OC(=O)[C@@H]2C)CC(N(C)C)[C@@H]1O` (some centres unmarked) [Compound 8], the antibacterial activity result in assay [1] is recorded as “no antibacterial activity”. For the same molecule, the MIC in assay [3], in assay [4], in assay [5] and in assay [6] was more than 64 µg/mL throughout.

For `CC(O)[C@H]1OC(=O)[C@H](C)[C@@H](O[C@H]2C[C@@H](N(C)C)[C@H](O)[C@@H](C)O2)[C@H](C)[C@@H](O)[C@](C)(O)C[C@@H](C)C(=O)[C@H](C)[C@@H](O)[C@H]1C` (some centres unmarked) [Compound 9, 14-hydroxy angolosamine erythronolide B], in assay [1], the antibacterial activity result is given as “no antibacterial activity”. For the same molecule, the MIC in assay [3], in assay [4], in assay [5] and in assay [6] was more than 64 µg/mL throughout.

Take `CC[C@H]1OC(=O)[C@H](C)[C@@H](O[C@H]2CC(N(C)C)[C@H](O)C(C)O2)[C@H](C)[C@@H](O)[C@](C)(O)C[C@@H](C)N(C)C[C@H](C)[C@@H](O)[C@]1(C)O` (some centres unmarked) [Compound 17]: in assay [7], the “OD after addition of 5 μM test article” value amounted to 0.054, the “OD after addition of 10 μM test article” value is 0.155 and the “OD after addition of 20 μM test article” value is reported as 0.234. The “concentrations at which TLR2 was stimulated (down to)” value in assay [7] (lowest stimulating concentration tested) is not below 10 µM.

As for `CC[C@H]1OC(=O)[C@H](C)[C@@H](O[C@H]2C[C@@](C)(OC)[C@@H](O)[C@H](C)O2)[C@H](C)[C@@H](O[C@@H]2O[C@H](C)C[C@H](N(C)C)[C@H]2O)[C@](C)(O)C[C@@H](C)C(=O)[C@H](C)[C@@H](O)[C@]1(C)O` [Erythromycin, reference compound], in assay [1], the antibacterial activity entry is listed as “potent activity against a number of the strains”. The MIC was less than 0.0625 µg/mL in assay [2]; less than 0.25 µg/mL in assay [3]; less than 0.06 µg/mL in assay [4]; more than 64 µg/mL in assay [5]; more than 64 µg/mL in assay [6]. In assay [7], the “OD after addition of 5 μM test article” value turned out to be 0.035. Also, the “OD after addition of 10 μM test article” value in assay [7] was 0.065. In assay [7], the “OD after addition of 20 μM test article” value is 0.045. For the same molecule, the TLR2 stimulation entry in assay [7] is “little or no stimulation”.

The term MIC denotes the smallest concentration in the dilution series that meets the test's criterion for growth inhibition. The low end stands for greater potency, the high end for weaker potency.
